This assay concerns MOLT-4 cells. The experiment in a line: Cell proliferation activity in MOLT-4 cells (72 h, cell viability luminescence). As to conditions: Homo sapiens, read-out: IC50 for the inhibition of MOLT-4 cell proliferation. In kind it is cell-based, human. The protocol: MOLT-4 cells are acute lymphoblastic leukemia cell lines in humans. The cells were purchased from ATCC. Culture conditions: RPMI-1640+10% FBS+1% penicillin-streptomycin solution. The cells were cultured in a 37° C., 5% CO2 incubator. The cells were plated in a 96-well plate, with 5×10^3 cells/well. After plating, compounds at different concentrations were added and cultured in a 37° C., 5% CO2 incubator for 72 h. After the completion of culture, a reagent (Promega, G7573) for detecting the cell viability was added. The mixture was uniformly mixed for 2 minutes and then incubated at room temperature for 10 minutes. The luminescence signal was detected with a multimode plate reader (BMG, PHERAstar FSX). The luminescence readings were processed using GraphPad Prism 8.0 software and the IC50 values of the compounds for the inhibition of cell proliferation and the maximum inhibition rate were calculated according to formula (2) and formula (3), respectively, wherein Tadministration denotes the cell signal readings obtained after incubation with the compounds for 72 h, and Tvehicle denotes the cell signal readings obtained after incubation with the vehicle control for 72 h.
Calculation of Max inhibition %: after the processing according to formula (2), the inhibition rate of the compounds at the highest concentration was calculated.

As to `Cc1ncsc1-c1ccc([C@H](C)NC(=O)[C@@H]2C[C@@H](O)CN2C(=O)[C@@H](NC(=O)CCCCCC(=O)N2CCN(CC[C@H](CSc3ccccc3)Nc3ccc(S(=O)(=O)NC(=O)c4ccc(N5CCN(CC6=C(c7ccc(C#N)cc7)CCC(C)(C)C6)CC5)cc4)cc3S(=O)(=O)C(F)(F)F)CC2)C(C)(C)C)cc1` [Trifluoroacetate of compound 4, (2S,4R)-1-((S)-2-(7-(4-((R)-3-((4-(N-(4-(4-((4′-cyano-4,4-dimethyl-3,4,5,6-tetrahydro-[1,1′-biphenyl]-2-yl)methyl)piperazin-1-yl)benzoyl)sulfamoyl)-2-((trifluoromethyl)sulfonyl)phenyl)amino)-4-(phenylthio)butyl)piperazin-1-yl)-7-oxoheptanamido)-3,3-dimethylbutanoyl)-4-hydroxy-N—((S)-1-(4-(4-methylthiazol-5-yl)phenyl)ethyl)pyrrolidine-2-carboxamide], the IC50 was less than 500 nM.

As to `Cc1ncsc1-c1ccc([C@H](C)NC(=O)[C@@H]2C[C@@H](O)CN2C(=O)[C@@H](NC(=O)CCCCCCC(=O)N2C[C@H]3CN(CC[C@H](CSc4ccccc4)Nc4ccc(S(=O)(=O)NC(=O)c5ccc(N6CCN(CC7=C(c8ccc(Cl)cc8)CCCCC7)CC6)cc5)cc4S(=O)(=O)C(F)(F)F)C[C@H]3C2)C(C)(C)C)cc1` [Compound 42, cis-(2S,4R)-1-((S)-2-(8-(5-((R)-3-((4-(N-(4-(4-((2-(4-chlorophenyl)cyclohept-1-en-1-yl)methyl)piperazin-1-yl)benzoyl)sulfamoyl)-2-((trifluoromethyl)sulfonyl)phenyl)amino)-4-(phenylthio)butyl)hexahydropyrrolo[3,4-c]pyrrol-2(1H)-yl)-8-oxooctanamido)-3,3-dimethylbutanoyl)-4-hydroxy-N—((S)-1-(4-(4-methylthiazol-5-yl)phenyl)ethyl)pyrrolidine-2-carboxamide], the IC50 was less than 500 nM.

Turning to `Cc1ncsc1-c1ccc([C@H](C)NC(=O)[C@@H]2C[C@@H](O)CN2C(=O)[C@@H](NC(=O)CCCCCCC(=O)N2CCN(CC[C@H](CSc3ccccc3)Nc3ccc(S(=O)(=O)NC(=O)c4ccc(N5CCN(CC6=C(c7ccc(Cl)cc7F)CCC(C)(C)C6)CC5)cc4)cc3S(=O)(=O)C(F)(F)F)CC2)C(C)(C)C)cc1` [Compound 24, (2S,4R)-1-((S)-2-(8-(4-((R)-3-((4-(N-(4-(4-((4′-chloro-2′-fluoro-4,4-dimethyl-3,4,5,6-tetrahydro-[1,1′-biphenyl]-2-yl)methyl)piperazin-1-yl)benzoyl)sulfamoyl)-2-((trifluoromethyl)sulfonyl)phenyl)amino)-4-(phenylthio)butyl)piperazin-1-yl)-8-oxooctanamido)-3,3-dimethylbutanoyl)-4-hydroxy-N—((S)-1-(4-(4-methylthiazol-5-yl)phenyl)ethyl)pyrrolidine-2-carboxamide], the IC50 was less than 500 nM.

For the compound `Cc1ncsc1-c1ccc([C@H](C)NC(=O)[C@@H]2C[C@@H](O)CN2C(=O)[C@@H](NC(=O)CCCCCC(=O)N2C[C@@H]3C[C@H]2CN3CC[C@H](CSc2ccccc2)Nc2ccc(S(=O)(=O)NC(=O)c3ccc(N4CCN(CC5=C(c6ccc(Cl)cc6)CCCCC5)CC4)cc3)cc2S(=O)(=O)C(F)(F)F)C(C)(C)C)cc1` [Compound 33, (2S,4R)-1-((S)-2-(7-((1S,4S)-5-((R)-3-((4-(N-(4-(4-((2-(4-chlorophenyl)cyclohept-1-en-1-yl)methyl)piperazin-1-yl)benzoyl)sulfamoyl)-2-((trifluoromethyl)sulfonyl)phenyl)amino)-4-(phenylthio)butyl)-2,5-diazabicyclo[2.2.1]heptan-2-yl)-7-oxoheptanamido)-3,3-dimethylbutanoyl)-4-hydroxy-N—((S)-1-(4-(4-methylthiazol-5-yl)phenyl)ethyl)pyrrolidine-2-carboxamide], the IC50 was less than 500 nM.

For `Cc1ncsc1-c1ccc([C@H](C)NC(=O)[C@@H]2C[C@@H](O)CN2C(=O)[C@@H](NC(=O)CCCCCC(=O)N2C[C@H]3CN(CC[C@H](CSc4ccccc4)Nc4ccc(S(=O)(=O)NC(=O)c5ccc(N6CCN(CC7=C(c8ccc(Cl)cc8F)CCCCC7)CC6)cc5)cc4S(=O)(=O)C(F)(F)F)C[C@H]3C2)C(C)(C)C)cc1` [Compound 39, cis-(2S,4R)-1-((S)-2-(7-(5-((R)-3-((4-(N-(4-(4-((2-(4-chloro-2-fluorophenyl)cyclohept-1-en-1-yl)methyl)piperazin-1-yl)benzoyl)sulfamoyl)-2-((trifluoromethyl)sulfonyl)phenyl)amino)-4-(phenylthio)butyl)hexahydropyrrolo[3,4-c]pyrrol-2(1H)-yl)-7-oxoheptanamido)-3,3-dimethylbutanoyl)-4-hydroxy-N—((S)-1-(4-(4-methylthiazol-5-yl)phenyl)ethyl)pyrrolidine-2-carboxamide], the IC50 is less than 500 nM.

On to `Cc1ncsc1-c1ccc([C@H](C)NC(=O)[C@@H]2C[C@@H](O)CN2C(=O)[C@@H](NC(=O)CCCCCCC(=O)N2C[C@@H]3C[C@H]2CN3CC[C@H](CSc2ccccc2)Nc2ccc(S(=O)(=O)NC(=O)c3ccc(N4CCN(CC5=C(c6ccc(Cl)cc6F)CCC6(CC6)C5)CC4)cc3)cc2S(=O)(=O)C(F)(F)F)C(C)(C)C)cc1` [Compound 30, (2S,4R)-1-((S)-2-(8-((1S,4S)-5-((R)-3-((4-(N-(4-(4-((6-(4-chloro-2-fluorophenyl)spiro[2.5]oct-5-en-5-yl)methyl)piperazin-1-yl)benzoyl)sulfamoyl)-2-((trifluoromethyl)sulfonyl)phenyl)amino)-4-(phenylthio)butyl)-2,5-diazabicyclo[2.2.1]heptan-2-yl)-8-oxooctanamido)-3,3-dimethylbutanoyl)-4-hydroxy-N—((S)-1-(4-(4-methylthiazol-5-yl)phenyl)ethyl)pyrrolidine-2-carboxamide], for which the IC50 was less than 500 nM.

As for `Cc1ncsc1-c1ccc([C@H](C)NC(=O)[C@@H]2C[C@@H](O)CN2C(=O)[C@@H](NC(=O)CCCCCC(=O)N2C[C@@H]3C[C@H]2CN3CC[C@H](CSc2ccccc2)Nc2ccc(S(=O)(=O)NC(=O)c3ccc(N4CCN(CC5=C(c6ccc(Cl)cc6)CCC6(CC6)C5)CC4)cc3)cc2S(=O)(=O)C(F)(F)F)C(C)(C)C)cc1` [Compound 27, (2S,4R)-1-((S)-2-(7-((1S,4S)-5-((R)-3-((4-(N-(4-(4-((6-(4-chlorophenyl)spiro[2.5]oct-5-en-5-yl)methyl)piperazin-1-yl)benzoyl)sulfamoyl)-2-((trifluoromethyl)sulfonyl)phenyl)amino)-4-(phenylthio)butyl)-2,5-diazabicyclo[2.2.1]heptan-2-yl)-7-oxoheptanamido)-3,3-dimethylbutanoyl)-4-hydroxy-N—((S)-1-(4-(4-methylthiazol-5-yl)phenyl)ethyl)pyrrolidine-2-carboxamide], the IC50 was less than 500 nM.

Consider `Cc1ncsc1-c1ccc([C@H](C)NC(=O)[C@@H]2C[C@@H](O)CN2C(=O)[C@@H](NC(=O)CCCCCC(=O)N2CCN(CC[C@H](CSc3ccccc3)Nc3ccc(S(=O)(=O)NC(=O)c4ccc(N5CCN(CC6=C(c7ccc(Cl)cc7)CCOC6)CC5)cc4)cc3S(=O)(=O)C(F)(F)F)CC2)C(C)(C)C)cc1` [Compound 5, (2S,4R)-1-((S)-2-(7-(4-((R)-3-((4-(N-(4-(4-((4-(4-chlorophenyl)-5,6-dihydro-2H-pyran-3-yl)methyl)piperazin-1-yl)benzoyl)sulfamoyl)-2-((trifluoromethyl)sulfonyl)phenyl)amino)-4-(phenylthio)butyl)piperazin-1-yl)-7-oxoheptanamido)-3,3-dimethylbutanoyl)-4-hydroxy-N—((S)-1-(4-(4-methylthiazol-5-yl)phenyl)ethyl)pyrrolidine-2-carboxamide], for which the IC50 was less than 500 nM.

As to `Cc1ncsc1-c1ccc([C@H](C)NC(=O)[C@@H]2C[C@@H](O)CN2C(=O)[C@@H](NC(=O)CCCCCC(=O)N2C[C@]3(C)CN(CC[C@H](CSc4ccccc4)Nc4ccc(S(=O)(=O)NC(=O)c5ccc(N6CCN(CC7=C(c8ccc(Cl)cc8)CCC(C)(C)C7)CC6)cc5)cc4S(=O)(=O)C(F)(F)F)C[C@]3(C)C2)C(C)(C)C)cc1` [Compound 26, cis-(2S,4R)-1-((S)-2-(7-(5-((R)-3-((4-(N-(4-(4-((4′-chloro-4,4-dimethyl-3,4,5,6-tetrahydro-[1,1′-biphenyl]-2-yl)methyl)piperazin-1-yl)benzoyl)sulfamoyl)-2-((trifluoromethyl)sulfonyl)phenyl)amino)-4-(phenylthio)butyl)-3a,6a-dimethylhexahydropyrrolo[3,4-c]pyrrol-2(1H)-yl)-7-oxoheptanamido)-3,3-dimethylbutanoyl)-4-hydroxy-N—((S)-1-(4-(4-methylthiazol-5-yl)phenyl)ethyl)pyrrolidine-2-carboxamide], the IC50 is less than 500 nM.

With `Cc1ncsc1-c1ccc([C@H](C)NC(=O)[C@@H]2C[C@@H](O)CN2C(=O)[C@@H](NC(=O)CCCCCC(=O)N2CCN(CC[C@H](CSc3ccccc3)Nc3ccc(S(=O)(=O)NC(=O)c4ccc(N5CCN(C/C6=C(\c7ccc(Cl)cc7)CCCCCC6)CC5)cc4)cc3S(=O)(=O)C(F)(F)F)CC2)C(C)(C)C)cc1` [Compound 43, (2S,4R)-1-((S)-2-(7-(4-((R)-3-((4-(N-(4-(4-((2-(4-chlorophenyl)cyclooct-1-en-1-yl)methyl)piperazin-1-yl)benzoyl)sulfamoyl)-2-((trifluoromethyl)sulfonyl)phenyl)amino)-4-(phenylthio)butyl)piperazin-1-yl)-7-oxoheptanamido)-3,3-dimethylbutanoyl)-4-hydroxy-N—((S)-1-(4-(4-methylthiazol-5-yl)phenyl)ethyl)pyrrolidine-2-carboxamide], the IC50 is less than 500 nM.

Source of the values: US20240408085A1, “COMPOUND FOR DEGRADATION OF BCL-2 FAMILY PROTEINS AND MEDICAL APPLICATION THEREOF” (XIZANG HAISCO PHARMACEUTICAL CO., LTD., priority 2021, published 2024).
